Assays:
[1] = test system: Escherichia coli; assay: Molecular phenotypic antimicrobial susceptibility test (extraction or DNA purification prior to PCR); format: cell-based
Method in brief: (§1)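 Growth of clinical isolates under antimicrobials held at breakpoint concentrations was scored by semi-quantitative PCR against drug-free control wells. Exposure ran 12-16 hours from a 0.5 McFarland inoculum.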

[2] = test system: pathogens of clinical samples; assay: Molecular phenotypic antimicrobial susceptibility test of clinical samples, extraction DNA purification step prior to PCR (Table 6); format: cell-based
Method in brief: as §1

[3] = test system: M. morganii; assay: Molecular phenotypic antimicrobial susceptibility test, specimen with two detected pathogens incubated together without isolation; format: cell-based, Morganella morganii; conditions: M. morganii in specimen with two detected pathogens (E. coli and M. morganii) incubated together; for Ct of Sensitive Breakpoint: Ct of controls (average) 19.99; for Molecular Antimicrobial Susceptibility Result: at sensitive breakpoint
Method in brief: (§2)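 Specimen in boric acid; pathogens identified by PCR while a parallel aliquot grew 4-6 h in liquid medium. With >10,000 cells/mL detected, culture diluted to 0.5 McFarland and exposed to antimicrobials in broth (e.g. Mueller Hinton) at breakpoint concentrations; both pathogens incubated together unisolated, growth read by molecular methods against medium-only wells.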

[4] = test system: E. coli; assay: as above; format: cell-based, Escherichia coli; conditions: E. coli in specimen with two detected pathogens (E. coli and M. morganii) incubated together; for Ct of Sensitive Breakpoint: Ct of controls (average) 15.93; for Molecular Antimicrobial Susceptibility Result: at sensitive breakpoint
Method in brief: as §2

[5] = E. coli isolate 4, Ct at control (average) 17.5733
[6] = E. coli isolate 4, at sensitive breakpoint
[7] = E. coli isolate 5, Ct at control (average) 21.0933
[8] = E. coli isolate 5, at sensitive breakpoint
[9] = E. coli, clinical sample of r10-r24
[10] = E. coli, clinical sample of r158-r172
[11] = K. aerogenes, clinical sample of r136-r150
[12] = K. pneumoniae, clinical sample of r121-r135
[13] = M. morganii, clinical sample of r55-r69
[14] = M. morganii, clinical sample of r70-r84
[15] = P. mirabilis, clinical sample of r25-r39
[16] = P. mirabilis, clinical sample of r40-r54
[17] = E. coli, clinical sample of r10-r24, Ct Control Avg 18.112
[18] = E. coli, clinical sample of r158-r172, Ct Control Avg 20.146
[19] = K. aerogenes, clinical sample of r136-r150, Ct Control Avg 19.994
[20] = K. pneumoniae, clinical sample of r121-r135, Ct Control Avg 24.272
[21] = M. morganii, clinical sample of r55-r69, Ct Control Avg 28.86
[22] = M. morganii, clinical sample of r70-r84, Ct Control Avg 27.053
[23] = P. mirabilis, clinical sample of r25-r39, Ct Control Avg 26.064
[24] = P. mirabilis, clinical sample of r40-r54, Ct Control Avg 26.987

SMILES	Ct at Sensitive Breakpoint [1, 5]	Molecular Antimicrobial Susceptibility Result [1, 6]	Ct at Sensitive Breakpoint [1, 7]	Molecular Antimicrobial Susceptibility Result [1, 8]	Molecular Antibiotic Susceptibility Result [2, 9]	Molecular Antibiotic Susceptibility Result [2, 10]	Molecular Antibiotic Susceptibility Result [2, 11]	Molecular Antibiotic Susceptibility Result [2, 12]	Molecular Antibiotic Susceptibility Result [2, 13]	Molecular Antibiotic Susceptibility Result [2, 14]	Molecular Antibiotic Susceptibility Result [2, 15]	Molecular Antibiotic Susceptibility Result [2, 16]	Ct of Sensitive Breakpoint [3]	Molecular Antimicrobial Susceptibility Result [3]	Ct of Sensitive Breakpoint [4]	Molecular Antimicrobial Susceptibility Result [4]	Ct [2, 17]	Ct [2, 18]	Ct [2, 19]	Ct [2, 20]	other results
CO/N=C(\C(=O)N[C@@H]1C(=O)N2C(C(=O)[O-])=C(C[N+]3(C)CCCC3)CS[C@H]12)c1csc(N)n1 [Cefepime]	17.09	Resistant	26.77	Sensitive (Antimicrobial wells with pathogen load detected below the control wells (typically >2 cycle thresholds later) may be reported as Sensitive)	Sensitive (Antimicrobial wells with pathogen load detected below the control wells (typically >2 cycle thresholds later) may be reported as Sensitive)	Sensitive (Antimicrobial wells with pathogen load detected below the control wells (typically >2 cycle thresholds later) may be reported as Sensitive)	Sensitive (Antimicrobial wells with pathogen load detected below the control wells (typically >2 cycle thresholds later) may be reported as Sensitive)	Sensitive (Antimicrobial wells with pathogen load detected below the control wells (typically >2 cycle thresholds later) may be reported as Sensitive)	Sensitive (Antimicrobial wells with pathogen load detected below the control wells (typically >2 cycle thresholds later) may be reported as Sensitive)	Sensitive (Antimicrobial wells with pathogen load detected below the control wells (typically >2 cycle thresholds later) may be reported as Sensitive)	Sensitive (Antimicrobial wells with pathogen load detected below the control wells (typically >2 cycle thresholds later) may be reported as Sensitive)	Sensitive (Antimicrobial wells with pathogen load detected below the control wells (typically >2 cycle thresholds later) may be reported as Sensitive)	29.72	Sensitive (Antimicrobial wells with pathogen load detected below the control wells (typically >2 cycle thresholds later) may be reported as Sensitive)	26.80	Sensitive (Antimicrobial wells with pathogen load detected below the control wells (typically >2 cycle thresholds later) may be reported as Sensitive)					
CO[C@@]1(NC(=O)Cc2cccs2)C(=O)N2C(C(=O)O)=C(COC(N)=O)CS[C@@H]21 [Cefoxitin]	24.09	Sensitive (Antimicrobial wells with pathogen load detected below the control wells (typically >2 cycle thresholds later) may be reported as Sensitive)	24.72	Sensitive (Antimicrobial wells with pathogen load detected below the control wells (typically >2 cycle thresholds later) may be reported as Sensitive)	Sensitive (Antimicrobial wells with pathogen load detected below the control wells (typically >2 cycle thresholds later) may be reported as Sensitive)	Sensitive (Antimicrobial wells with pathogen load detected below the control wells (typically >2 cycle thresholds later) may be reported as Sensitive)	Resistant	Sensitive (Antimicrobial wells with pathogen load detected below the control wells (typically >2 cycle thresholds later) may be reported as Sensitive)	Sensitive (Antimicrobial wells with pathogen load detected below the control wells (typically >2 cycle thresholds later) may be reported as Sensitive)	Sensitive (Antimicrobial wells with pathogen load detected below the control wells (typically >2 cycle thresholds later) may be reported as Sensitive)	Sensitive (Antimicrobial wells with pathogen load detected below the control wells (typically >2 cycle thresholds later) may be reported as Sensitive)	Sensitive (Antimicrobial wells with pathogen load detected below the control wells (typically >2 cycle thresholds later) may be reported as Sensitive)	23.01	Sensitive (Antimicrobial wells with pathogen load detected below the control wells (typically >2 cycle thresholds later) may be reported as Sensitive)	18.30	Sensitive (Antimicrobial wells with pathogen load detected below the control wells (typically >2 cycle thresholds later) may be reported as Sensitive)	26.364	31.631	20.635	32.55	Ct [2, 21]: 37.168; Ct [2, 22]: 35.243; Ct [2, 23]: 29.443; Ct [2, 24]: 30.603; Molecular Antibiotic Susceptibility Result ([2]; S. aureus, clinical sample of r85-r92): Resistant; Ct ([2]; S. aureus, clinical sample of r85-r92, Ct Control Avg 24.32): 15.037
CO/N=C(\C(=O)N[C@@H]1C(=O)N2C(C(=O)O)=C(CSc3nc(=O)c(=O)[nH]n3C)CS[C@H]12)c1csc(N)n1 [Ceftriaxone]	17.74	Resistant	25.48	Sensitive (Antimicrobial wells with pathogen load detected below the control wells (typically >2 cycle thresholds later) may be reported as Sensitive)	Sensitive (Antimicrobial wells with pathogen load detected below the control wells (typically >2 cycle thresholds later) may be reported as Sensitive)	Sensitive (Antimicrobial wells with pathogen load detected below the control wells (typically >2 cycle thresholds later) may be reported as Sensitive)	Sensitive (Antimicrobial wells with pathogen load detected below the control wells (typically >2 cycle thresholds later) may be reported as Sensitive)	Sensitive (Antimicrobial wells with pathogen load detected below the control wells (typically >2 cycle thresholds later) may be reported as Sensitive)	Sensitive (Antimicrobial wells with pathogen load detected below the control wells (typically >2 cycle thresholds later) may be reported as Sensitive)	Sensitive (Antimicrobial wells with pathogen load detected below the control wells (typically >2 cycle thresholds later) may be reported as Sensitive)	Sensitive (Antimicrobial wells with pathogen load detected below the control wells (typically >2 cycle thresholds later) may be reported as Sensitive)	Sensitive (Antimicrobial wells with pathogen load detected below the control wells (typically >2 cycle thresholds later) may be reported as Sensitive)	30.03	Sensitive (Antimicrobial wells with pathogen load detected below the control wells (typically >2 cycle thresholds later) may be reported as Sensitive)	28.57	Sensitive (Antimicrobial wells with pathogen load detected below the control wells (typically >2 cycle thresholds later) may be reported as Sensitive)	26.029	29.851	33.124	33.145	Ct at Sensitive Breakpoint ([1]; E. coli isolate 1, Ct at control (average) 21.238): 19.368; Molecular Antimicrobial Susceptibility Result ([1]; E. coli isolate 1, at sensitive breakpoint): Resistant; Ct at Sensitive Breakpoint ([1]; E. coli isolate 2, Ct at control (average) 21.270): 20.665; Molecular Antimicrobial Susceptibility Result ([1]; E. coli isolate 2, at sensitive breakpoint): Resistant; Ct at Sensitive Breakpoint ([1]; E. coli isolate 3, Ct at control (average) 22.0995): 18.979; Molecular Antimicrobial Susceptibility Result ([1]; E. coli isolate 3, at sensitive breakpoint): Resistant; Ct [2, 21]: 35.749; Ct [2, 22]: 36.141; Ct [2, 23]: 29.277; Ct [2, 24]: 32.789
